“Also recorded” adds a separate entry of the source. Where two headings read alike, the source gives them in different places.
Assays:
[1] = In vivo administration test 1: intravenous administration, plasma concentration by LC-MS/MS; set-up: species or system cynomolgus monkeys; settings: for half-life / AUC / ke: male cynomolgus monkeys, intravenous, single dose 1 mg/kg, plasma
Description: (§1) Each enantiomer (S(+) form or R(−) form) of MA5 was dissolved in a mixed solution of physiological saline and 0.1 N sodium hydroxide (9:1), and filtered and sterilized by using a 0.22 μm filter to prepare a solution containing 2 mL/kg of each enantiomer of MA5. Next, the solution containing each enantiomer of MA5 was intravenously administered to each of three 4- to 5-year-old male cynomolgus monkeys at a single dose of 1 mg/kg. As a control, a solution containing no enantiomer of MA5 was also administered in the same manner. […] The analysis conditions for LC-MS/MS are as follows.
As an ionization unit, an apparatus in which NANOSPACESI-2 (manufactured by OSAKA SODA CO., LTD.) as a high-performance liquid chromatograph was connected to a triple quadrupole mass spectrometer (TSQ Quantum Ultra, manufactured by Thermo Fisher Scientific Inc.) equipped with an ESI probe was used. The S(+) form of MA5 (S-(+)-MA5) and the R(−) form of MA5 (R-(−)-MA5), which are substances to be analyzed, were subjected to quantitative analysis by the internal standard method using their respective stable isotopes S-(+)-MA5-d6 and R-(−)-MA5-d6. […] AD-3R (150×2.1 mm i.d., 3.0 μm particle size, manufactured by Daicel Corporation) was used as the analytical column, and CAPCELL C8UG120 (10×2.0 mm i.d., 5.0 μm particle size, manufactured by OSAKA SODA CO., LTD.) was used as the guard column. The column oven temperature was 35° C. Formic acid/water (0.1/100 [v/v]) (solution A)/acetonitrile (solution B) was used as the mobile phase, and the flow rate was 200 μL/min. The measurement was carried out under an isocratic condition in which a single composition of solution A/solution B (57/43 [v/v]) was used for elution. Solution A/solution B (57/43 [v/v]) was used until the analysis time reached 9.5 minutes, and solution A/solution B (10/90 [v/v]) was used after the analysis time reached 9.7 minutes. In addition, a system for washing the column with solution A/solution B (10/90 [v/v]) was incorporated while the analysis time elapsed was 9.7 minutes to 11.7 minutes, and the column was equilibrated with solution A/solution B (57/43 [v/v]) while the analysis time elapsed was 11.8 minutes to 15 minutes. The retention time was 6.95 minutes for S-(+)-MA5, 6.80 minutes for S-(+)-MA5-d6, 8.69 minutes for R-(−)-MA5, and 8.56 minutes for R-(−)-MA5-d6.
The MS conditions were detected in negative ion mode, a spray voltage set to 2.5 kV, a vaporizer temperature set to 250° C., and an ion transfer tube temperature set to 250° C. The precursor ion>product ion SRM channel was set to “m/z 328.0>116.2” for MA5 and “m/z 334.0>121.1” for MA5-d6. The collision energy for generating a product ion was set to 12 eV for MA5 and 17 eV for MA5-d6. Waveform analysis and quantitative calculation by the internal standard method were carried out by using Xcalibur (manufactured by Thermo Fisher Scientific Inc.).

[2] = test system: Rat fetal cardiomyoblast cells H9c2; assay: Effect of suppressing DNA damage caused by camptothecin (γH2AX immunostaining); format: cell-based; settings: camptothecin 10 μM plus compound 30 μM, cultured 24 hours
Description: Rat fetal cardiomyoblast cells H9c2 were maintained and cultured in a DMEM medium (10% FBS, penicillin at 100 units/mL, streptomycin at 100 μg/mL). Camptothecin (CPT) at a final concentration of 10 μM, CPT at a final concentration of 10 μM, and MA5 (racemic form, S(+) form, or R(−) form) at a final concentration of 30 μM, or DMSO (control) were added. The cells were cultured for 24 hours, then the medium was removed, and γH2AX (phosphorylated H2AX), which is an indicator for DNA damage, was detected by immunostaining. The immunostaining was carried out by using a mouse anti-γH2AX antibody (Thermo Fisher) as a primary antibody and a CF568-labeled goat anti-mouse IgG antibody (Biotium Inc.) as a secondary antibody.

HEI-OC1 cell line = assay: Evaluation of SIRT expression level in animal cells (Western blotting); format: cell-based, mouse; settings: 1 to 30 μM, cultured 24 hours, compared with absence of the compound
Description: A mouse inner ear cell line (HEI-OC1 cell line) was seeded in a dish containing 10 mL of a culture medium (low glucose DMEM medium [glucose concentration of […]] supplemented with 10% by weight of FBS) at 1×10^6 cells/dish and cultured. One day after, 0.1% DMSO, which is a solvent for the compounds, or various concentrations (1 μM, 3 μM, 10 μM, or 30 μM) of three compounds (racemic form of MA5, S(+) form of MA5, or R(−) form of MA5) were added, and the cells were cultured for 24 hours. After the culture was completed, the cells were collected, the cells were disrupted by a conventional method, and the expression levels of various SIRTs (SIRT1, SIRT2, SIRT3, SIRT5, SIRT6, and SIRT7) in the cells were analyzed by Western blotting (see FIGS. 12 to 14 [FIG. 12-1 to FIG. 14-2]).

[3] = In vivo administration test 2: oral administration, plasma concentrations; settings: male cynomolgus monkeys, single dose 100 mg/kg
Description: as §1
As an ionization unit, an apparatus in which NANOSPACESI-2 (manufactured by OSAKA SODA CO., LTD.) as a high-performance liquid chromatograph was connected to a triple quadrupole mass spectrometer (TSQ Quantum Ultra, manufactured by Thermo Fisher Scientific Inc.) equipped with an ESI probe was used. The S(+) form of MA5 (S-(+)-MA5) and the R(−) form of MA5 (R-(−)-MA5), which are substances to be analyzed, were subjected to quantitative analysis by the internal standard method using their respective stable isotopes S-(+)-MA5-d6 and R-(−)-MA5-d6. […]
The MS conditions were detected in negative ion mode, a spray voltage set to 2.5 kV, a vaporizer temperature set to 250° C., and an ion transfer tube temperature set to 250° C. […] Waveform analysis and quantitative calculation by the internal standard method were carried out by using Xcalibur (manufactured by Thermo Fisher Scientific Inc.).
In “3. […] Specifically, according to the method described in “3-1 Method” above, a solution containing each enantiomer (S(+) form or R(−) form) of MA5 was orally administered to male cynomolgus monkeys at a single dose of 100 mg/kg, the concentration of each enantiomer of MA5 and the concentration of a reduced metabolite of each enantiomer of MA5 (the compound represented by formula (B) [that is, Red-MA5]) in plasma were measured.

[4] = Physical properties: coloration and degradation of dissolution solutions; format: physicochemical
[5] = Physical properties: solubility in solvents; format: physicochemical
[6] = cynomolgus monkey, read-out: AUC value

Row | SMILES | half-life ([1]; cynomolgus monkey) | AUC [1, 6] | AUC [1] | ke [1] | fluorescence intensity of γH2AX (phosphorylated H2AX) [2] | expression levels of the various SIRTs (SIRT1, SIRT2, SIRT3, SIRT5, SIRT6, and SIRT7) in the cells (HEI-OC1 cell line) | reduced metabolite (Red-MA5) in plasma [3] | also measured
1 | O=C(C[C@@H](C(=O)O)c1c[nH]c2ccccc12)c1ccc(F)cc1F [R(−) form of MA5, 4-(2,4-difluorophenyl)-2-(1H-indol-3-yl)-4-oxo-butanoic acid] | 66 min | 12000 ng·h/mL | 12000 ng·h/mL | 0.63 h⁻¹ | not observed | remained almost unchanged | detected | 
2 | O=C(C[C@H](C(=O)O)c1c[nH]c2ccccc12)c1ccc(F)cc1F [S(+) form of MA5, 4-(2,4-difluorophenyl)-2-(1H-indol-3-yl)-4-oxo-butanoic acid] | 144 min | 30000 ng·h/mL | 30000 ng·h/mL | 0.29 h⁻¹ | a decrease in the fluorescence intensity of phosphorylated H2AX was observed; also recorded: the level of γH2AX was low | increased | almost no reduced metabolite was detected | R(−) form of MA5 in plasma after administration of the S(+) form (chiral conversion in vivo) ([1]; 5 minutes to 24 hours after intravenous administration, cynomolgus monkeys): not detected; more likely to be retained in blood than the R(−) form of MA5 ([1]; from AUC values, intravenous 1 mg/kg, cynomolgus monkeys): 2.5 times; degradation product on silica gel TLC plate ([4]; alcohol-chloroform dissolution solution): a large amount of a degradation product was generated; degradation product on silica gel TLC plate ([4]; dissolution solution developed immediately): no degradation product was generated; degradation product on silica gel TLC plate ([4]; dissolution solution spotted and developed after some time): a degradation product appeared; coloration of dissolution solution ([4]; ethanol, isopropanol, acetone, acetonitrile, ethyl acetate, 50% acetonitrile aqueous solution, or 0.1% formic acid-containing acetonitrile solution, refrigerated for about a week): does not become colored; degradation product on silica gel TLC plate ([4]; ethyl acetate dissolution solution): not easily generated; stability under a light, acid, or alkali condition ([4]; light, acid, or alkali condition): undergoes coloration and degradation; coloration of dissolution solution ([4]; methanol, dichloromethane, chloroform, 50% methanol aqueous solution, or 0.1% formic acid-containing methanol solution, refrigerated for about a week): colored pale yellow; coloration of dissolution solution ([4]; mixed solvent of an alcohol (methanol, ethanol, or isopropanol) and chloroform, the day after preparation): colored yellow; concentration in plasma after oral administration [3]: higher than that of the R(−) form of MA5 in plasma; solubility ([5]; in a 50% acetonitrile aqueous solution): slightly soluble; solubility ([5]; in a 50% methanol aqueous solution): sparingly soluble; solubility ([5]; in acetone, acetonitrile, ethyl acetate, chloroform, dichloromethane, methanol, ethanol, and isopropanol): easily soluble
